Measured values published in paper PMC10302398, “Mechanistic Insights into the Antibiofilm Mode of Action of Ellagic Acid” (Pharmaceutics, 2023).

Tests used:
[1] = molecular target: T1, WrbA (NADH:quinone oxidoreductase WrbA; WrbAJW) (Escherichia coli, UniProt P0A8G6); assay: MST (Kd […]); also SPR (Kd […]) and NADH:DCPIP oxidoreductase inhibition (IC50 […]); format: binding
[2] = molecular target: T1, WrbA (NADH:quinone oxidoreductase WrbA; WrbAJW); assay: NADH:DCPIP oxidoreductase activity assay of purified WrbAJW; format: biochemical

T1 sequence (P0A8G6 2-198): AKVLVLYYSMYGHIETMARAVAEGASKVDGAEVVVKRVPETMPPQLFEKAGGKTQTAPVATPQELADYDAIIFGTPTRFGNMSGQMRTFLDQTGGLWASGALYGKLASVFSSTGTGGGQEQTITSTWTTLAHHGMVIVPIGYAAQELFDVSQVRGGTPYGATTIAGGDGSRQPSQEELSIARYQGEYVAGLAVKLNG

Row | SMILES | Kd [1] [mM] | IC50 [2] [mM]
1 | O=c1oc2c(O)c(O)cc3c(=O)oc4c(O)c(O)cc1c4c23 [EA, ellagic acid] | 0.0015 ± 0.0004 | 
2 | O=C(O)c1ccccc1O [SA, salicylic acid] |  | 7.85 ± 2.65
